Test results from patent US20250059172A1, “INDAZOLE COMPOUND AND PHARMACEUTICAL” (NIPPON SHINYAKU CO., LTD., priority 2021, published 2025).

Assays:
human mPGES-1 = human mPGES-1 (Homo sapiens (Human), UniProt O14684); test: mPGES-1 inhibitory activity test; format: biochemical; conditions: for IC50: microsomes of CHO-K1 cells expressing human mPGES-1, PGH2 1 μM, PGE2 by HTRF, read-out: mPGES-1 inhibition (IC50 nM)
In short: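 PGE2 formation was quantified by HTRF and reported as percent inhibition at 10 and 100 nM compound or as IC50. The 60-second reaction at 4° C used 1 μM PGH2, after a 20-minute 4° C preincubation of compound (1% DMSO final) with glutathione-supplemented (2.5 mM, pH 7.4) microsomes. The microsomes were from transiently transfected CHO-K1 cells expressing human mPGES-1.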

[1] = test system: Female Hartley guinea pigs; test: Suppression of urinary output in a guinea pig model of water-loaded polyuria; format: in vivo; conditions: oral, total urinary output up to 3 hours after water load, relative to vehicle group
Procedure: The water-loaded polyuria model, commonly used as a model for polyuria, was used to evaluate the inhibitory effect of the test compounds on urinary output in the following manner. Female Hartley guinea pigs (Japan SLC Co., Ltd.) were acclimated in a metabolic cage (Natsume Seisakusho Co., Ltd.) in a fasted condition from the evening of one day before the test. On the following day, 20 mL/kg of distilled water was administered orally as a water load, and then the guinea pigs were placed back in the metabolic cage and the total urinary output up to 3 hours after the water load was downloaded into a personal computer via an electronic balance (GX-200, A&D Corporation) and a data collection and analysis system (PowerLab®, ADInstruments), and then analyzed using analyzing software (LabChart®, ADInstruments). Test compounds dissolved in 0.5% methylcellulose solution (vehicle) or vehicle only were administered orally immediately before water loading depending on the kinetics of the compound. Based on the total urinary output at 3 hours after administration of the test compound and vehicle groups, the percentage inhibition of urinary output of the test compound group (%) was calculated relative to the urinary output of the vehicle group.

human A549 cells = test: Inhibition test of PGE2 production using human A549 cells; format: cell-based; conditions: IL-1β stimulated A549 cells, 24 h, PGE2 by HTRF, read-out: A549 cell inhibition of PGE2 production IC50
In short: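 A549 cells were preincubated 60 min with compound in RPMI/3% FBS (0.1% DMSO final), then stimulated with IL-1β (5 ng/well) for 24 h at 37°C. PGE2 was measured by HTRF and PGF2a by EIA; activity was normalized to stimulated minus unstimulated controls, and IC50 derived.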

human mPGES-1, sequence (O14684 whole entry): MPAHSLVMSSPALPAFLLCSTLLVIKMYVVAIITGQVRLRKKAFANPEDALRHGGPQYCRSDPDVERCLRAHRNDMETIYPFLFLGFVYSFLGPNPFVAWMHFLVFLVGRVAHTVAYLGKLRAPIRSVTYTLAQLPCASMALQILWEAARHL

Row | IC50 (human mPGES-1) | IC50 (human A549 cells) | inhibition at 0.01 µM (human mPGES-1; 10 nM test compound) | inhibition at 0.1 µM (human mPGES-1; 100 nM test compound) | SMILES | Suppression (%) of urinary output [1]
1 | 34.2 nM | 24.4 nM | – | – | Cc1ccc(-n2ncc3c(NC(=O)c4cc(CNC(=O)C(C)(C)C)ccc4Cl)cccc32)nn1 [Example 59, 2-Chloro-5-{[(2,2-dimethylpropanoyl)amino]methyl}-N-[1-(6-methylpyridazin-3-yl)-1H-indazol-4-yl]benzamide] | 21.2%
2 | 3.8 nM | 2.1 nM | – | – | CC(C)(C)C(=O)NCc1ccc(Cl)c(C(=O)Nc2cccc3c2cnn3-c2ccc(C3CC3)nc2)c1.Cl [Example 69, 2-Chloro-N-[1-(6-cyclopropylpyridin-3-yl)-1H-indazol-4-yl]-5-{[(2,2-dimethylpropanoyl)amino]methyl}benzamide hydrochloride] | 57.8%
3 | 1.5 nM | 68.2 nM | – | – | Cc1ccc(-n2ncc3c(NC(=O)c4cc(CNC(=O)C(C)(C)C)ccc4C(F)(F)F)cccc32)cn1.Cl [Example 88, 5-{[(2,2-Dimethylpropanoyl)amino]methyl}-N-[1-(6-methylpyridin-3-yl)-1H-indazol-4-yl]-2-(trifluoromethyl)benzamide hydrochloride] | 34.5%
4 | – | 3 nM | 68% | 94% | COc1ccc(-n2ncc3c(NC(=O)c4cc(CNC(=O)C(C)(C)C)ccc4C(F)(F)F)cccc32)cn1 [Example 276, 5-{[(2,2-Dimethylpropanoyl)amino]methyl}-N-[1-(6-methoxypyridin-3-yl)-1H-indazol-4-yl]-2-(trifluoromethyl)benzamide] | 35.1%
